The results in this text go back to patent US7943584B2, “Medicinal composition containing diabetes remedy” (Sankyo Company, Limited, priority 2004, dated 2011).

Each structure is given as a SMILES string.

This experiment addresses T1, human pancreatic α-amylase (HPA) (Homo sapiens, UniProt P04746).
T1 construct: purchased International Reagents Co., Ltd. Calibzyme AMY
T1 sequence (P04746 16-511): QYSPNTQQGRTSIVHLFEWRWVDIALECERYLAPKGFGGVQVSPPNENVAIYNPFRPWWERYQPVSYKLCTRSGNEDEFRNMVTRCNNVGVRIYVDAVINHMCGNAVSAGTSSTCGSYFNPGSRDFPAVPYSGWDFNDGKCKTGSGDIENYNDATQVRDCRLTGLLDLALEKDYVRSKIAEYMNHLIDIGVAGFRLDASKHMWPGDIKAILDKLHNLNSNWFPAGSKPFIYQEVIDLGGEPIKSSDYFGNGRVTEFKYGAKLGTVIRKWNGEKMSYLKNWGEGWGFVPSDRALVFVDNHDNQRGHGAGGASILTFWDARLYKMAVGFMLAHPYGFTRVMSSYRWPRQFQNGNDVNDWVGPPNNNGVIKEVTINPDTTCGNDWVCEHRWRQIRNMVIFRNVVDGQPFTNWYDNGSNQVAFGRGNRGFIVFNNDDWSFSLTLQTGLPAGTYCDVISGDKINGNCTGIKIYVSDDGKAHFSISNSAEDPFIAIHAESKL
The experiment can be described thus: α-Amylase inhibitory action (Blue Starch, Neo Amylase Test). It is filed as biochemical. The note with it: final concentration required for 50% inhibition of HPA solution, 37° C.

Description: α-Amylase Inhibitory Action
(1) Preparation of Human α-Amylase Solution
Calibzyme AMY (International Reagents Co., Ltd.) was used for the human pancreatic α-amylase (HPA). Distilled water was added to the commercially available HPA and dissolved to a concentration of 200 IU/l to prepare the α-amylase solution. The activity of the α-amylase was measured using a commercially available α-amylase assay reagent (Neo Amylase Test Daiichi, Daiichi Pure Chemicals Co., Ltd.).
(2) Preparation of Inhibitory Solutions
Each test compound was prepared with distilled water to a final concentration of 0.1 to 30 μg/ml.
(3) Measurement of Human α-Amylase Inhibitory Activity of Inhibitory Solutions
After incubating for 10 minutes at 37° C., a Blue Starch tablet (Neo Amylase Test Daiichi, Daiichi Pure Chemicals Co., Ltd.) was added followed by stirring for about 10 seconds with a mixer, and the mixture was then heated for 30 minutes at 37° C. […] In addition, a mixture to which distilled water was added instead of α-amylase solution was used as a blank.

Broadly, the IC50 is the concentration that inhibits the measured activity by half. Consider `COC[C@H]1O[C@@H](O[C@H]2[C@H](O)[C@@H](O)C(O[C@H]3[C@H](O)CN[C@@H]3CO)O[C@@H]2CO)[C@H](O)[C@@H](O)[C@@H]1O` (stereo partly drawn) [Reference Example 8, (2R,3R,4R)-4-Hydroxy-2-hydroxymethylpyrrolidin-3-yl 4-O-(6-methoxy-6-deoxy-β-D-glucopyranosyl)-D-glucopyranoside], for which the 50% inhibitory concentration (IC50) is 0.848 µM.
